Laboratory results taken from US20230227426A1 (Akebia Therapeutics, Inc., priority 2020, published 2023).
pIC50: −log10 of the molar value.

Columns and labels:
Type in all cases: biochemical
full-length human PHD2 = target: T1, full-length human PHD2 (Homo sapiens, UniProt Q9GZT9); assay: TR-FRET assay for PHD enzymes, PHD2; conditions: read-out: PHD2 IC5 0
T1 construct: The PHD2 construct contained amino acids 1 to 426 of PHD2; His tag (N, cleaved yes); TEV protease cleavage site (N, cleaved yes); host or cells: Sf9 insect cells (baculovirus)
T1 sequence (Q9GZT9 whole entry, the tested form may be a part): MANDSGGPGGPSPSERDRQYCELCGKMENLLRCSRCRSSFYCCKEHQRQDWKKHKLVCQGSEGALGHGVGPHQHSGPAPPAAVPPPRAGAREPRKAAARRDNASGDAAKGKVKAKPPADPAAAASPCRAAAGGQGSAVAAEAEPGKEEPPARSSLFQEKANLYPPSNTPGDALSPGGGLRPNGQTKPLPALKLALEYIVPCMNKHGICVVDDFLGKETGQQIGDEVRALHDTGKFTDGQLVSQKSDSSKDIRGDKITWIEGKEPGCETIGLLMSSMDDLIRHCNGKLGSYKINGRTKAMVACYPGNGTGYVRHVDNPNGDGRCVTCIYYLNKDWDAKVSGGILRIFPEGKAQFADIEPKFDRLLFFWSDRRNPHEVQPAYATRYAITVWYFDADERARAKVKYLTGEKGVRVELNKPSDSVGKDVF
Method: (§1) The resulting proximity of the donor fluorophore complex, monoclonal antibody anti-6His-Terbium (Tb)-cryptate Gold, bound to the His-tagged VHL protein, EloB, EloC complex (His-VBC) and the acceptor fluorophore, SA-D2 complex, bound to HIF-1α-hydroxyproline results in a fluorescence resonance energy transfer signal that can be detected and quantified
(§2) For this, 5 μL PHD inhibitor compound was serially diluted with dilution buffer (50 mM HEPES [4-(2-hydroxyethyl)-1-piperazineethanesulfonic acid] pH 7.5, 50 mM sodium chloride [NaCl], 0.01% Tween-20, 0.01% purified bovine serum albumin [BSA]) and mixed with 5 μL PHD enzyme mix prepared as a 4× concentrate in the dilution buffer containing PHD enzyme (60 nM PHD1, 20 nM PHD2, 140 nM PHD3), 40 μM ferrous ammonium sulfate (FAS), 4 mM sodium (Na) ascorbate.
(§3) The IC50 values (mean, standard deviation, standard error of the mean, geometric mean and 95% confidence interval) were determined using a four-parameter curve-fit using GraphPad Prism 7.0 (GraphPad, La Jolla, Calif., USA) and represent the compound concentration plotted against the calculated ratio of 665 nm and 615 nm.

full-length human PHD1 = target: T2, full-length human PHD1 (Homo sapiens, UniProt Q96KS0); assay: TR-FRET assay for PHD enzymes, PHD1
T2 construct: FLAG (N); purchased Active Motif (Carlsbad, Calif., USA) 81064; host or cells: baculovirus expression system
T2 sequence (Q96KS0 whole entry): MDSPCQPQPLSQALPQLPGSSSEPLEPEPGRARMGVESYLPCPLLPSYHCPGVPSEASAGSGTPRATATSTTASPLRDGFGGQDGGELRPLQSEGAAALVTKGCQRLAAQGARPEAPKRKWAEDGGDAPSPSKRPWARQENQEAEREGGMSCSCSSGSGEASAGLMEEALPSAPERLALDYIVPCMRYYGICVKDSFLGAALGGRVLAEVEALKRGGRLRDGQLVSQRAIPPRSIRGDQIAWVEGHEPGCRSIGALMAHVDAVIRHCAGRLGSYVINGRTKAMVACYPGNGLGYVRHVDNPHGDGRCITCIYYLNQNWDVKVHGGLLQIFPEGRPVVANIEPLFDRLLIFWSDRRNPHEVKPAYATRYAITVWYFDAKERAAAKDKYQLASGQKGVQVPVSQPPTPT
Text: as §1
Recombinant human PHD1 protein (catalog #81064, Lot #24717001) was purchased from Active Motif (Carlsbad, Calif., USA). PHD1 was expressed in a baculovirus expression system as the full-length protein (NCBI accession number NP_542770.2) with an N-terminal FLAG tag (molecular weight 44.9 kDa). Purity (>90%) was assessed by SDS-PAGE.
as §2, §3

full-length human PHD3 = target: T3, full-length human PHD3 (Homo sapiens, UniProt Q9H6Z9); assay: TR-FRET assay for PHD enzymes, PHD3
T3 construct: 6-His (N); purchased Active Motif (Carlsbad, Calif., USA) 81033; host or cells: E. coli
T3 sequence (Q9H6Z9 whole entry): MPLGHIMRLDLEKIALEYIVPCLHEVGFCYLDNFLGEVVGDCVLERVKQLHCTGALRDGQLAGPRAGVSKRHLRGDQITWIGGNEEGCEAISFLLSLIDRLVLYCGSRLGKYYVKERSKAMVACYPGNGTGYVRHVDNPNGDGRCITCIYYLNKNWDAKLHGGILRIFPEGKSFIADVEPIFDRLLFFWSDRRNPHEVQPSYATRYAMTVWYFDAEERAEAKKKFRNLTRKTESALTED
Text: as §1
Recombinant human PHD3 protein (molecular weight 31.1 kDa) was purchased from Active Motif (Carlsbad, Calif., USA). It was expressed in E. coli as the full-length protein (NCBI accession number NP_071356.1) with an N-terminal 6-His tag (catalog #81033, Lot #24417001).
as §2, §3

| Structure (SMILES) | pIC50 (full-length human PHD2) | pIC50 (full-length human PHD1) | pIC50 (full-length human PHD3) |
| --- | --- | --- | --- |
| Cc1ccc(-c2cnn(-c3ccc(C(=O)OC(C)(C)C)cn3)c2O)cc1 [Compound 1, Tert-butyl 6-(5-hydroxy-4-(p-tolyl)-1H-pyrazol-1-yl)nicotinate] | 5.00 to 6.00 | 6.00 to 7.00 |  |
| CC(C)(C)OC(=O)c1ccc(-n2ncc(-c3ccc(Br)cc3)c2O)nc1 [Compound 2, Tert-butyl 6-(4-(4-bromophenyl)-5-hydroxy-1H-pyrazol-1-yl)nicotinate] | ≤ 5.00 | 6.00 to 7.00 |  |
| O=C(O)c1ccc(-n2ncc(-c3ccc(Br)cc3)c2O)nc1 [Compound 3, 6-(4-(4-Bromophenyl)-5-hydroxy-1H-pyrazol-1-yl) nicotinic acid] | > 7.00 | > 7.00 | 6.00 to 7.00 |
| CC(C)(C)OC(=O)c1ccc(-n2ncc(-c3ccc(Cl)cc3)c2O)nc1 [Compound 4, Tert-butyl 6-(4-(4-chlorophenyl)-5-hydroxy-1H-pyrazol-1-yl)nicotinate] | 5.00 to 6.00 | 6.00 to 7.00 |  |
| O=C(O)c1ccc(-n2ncc(-c3ccc(Cl)cc3)c2O)nc1 [Compound 5, 6-(4-(4-Chlorophenyl)-5-hydroxy-1H-pyrazol-1-yl)nicotinic acid] | > 7.00 | > 7.00 | 6.00 to 7.00 |
| CC(C)(C)OC(=O)c1ccc(-n2ncc(-c3ccc(F)cc3)c2O)nc1 [Compound 6, Tert-butyl 6-(4-(4-fluorophenyl)-5-hydroxy-1H-pyrazol-1-yl)nicotinate] | 5.00 to 6.00 | > 7.00 |  |
| O=C(O)c1ccc(-n2ncc(-c3ccc(F)cc3)c2O)nc1 [Compound 7, 6-(4-(4-Fluorophenyl)-5-hydroxy-1H-pyrazol-1-yl)nicotinic acid] | > 7.00 | > 7.00 | 5.00 to 6.00 |
| Cc1cc(C#N)ccc1-c1cnn(-c2ccc(C(=O)OC(C)(C)C)cn2)c1O [Compound 8, Tert-butyl 6-(4-(4-cyano-2-methylphenyl)-5-hydroxy-1H-pyrazol-1-yl)nicotinate] | > 7.00 | > 7.00 | > 7.00 |
| Cc1nn(-c2ccc(C(=O)O)cn2)c(O)c1-c1ccc(C#N)cc1 [Compound 9, 6-(4-(4-Cyanophenyl)-5-hydroxy-3-methyl-1H-pyrazol-1-yl)nicotinic acid] | > 7.00 | > 7.00 | > 7.00 |
| Cc1nn(-c2ccc(C(=O)OC(C)(C)C)cn2)c(O)c1-c1ccc(C#N)cc1 [Compound 10, Tert-butyl 6-(4-(4-cyanophenyl)-5-hydroxy-3-methyl-1H-pyrazol-1-yl)nicotinate] | > 7.00 | > 7.00 | ≤ 5.00 |
| COC(=O)c1ccc(-n2nc(C)c(-c3ccc(C#N)cc3)c2O)nc1 [Compound 11, Methyl 6-(4-(4-cyanophenyl)-5-hydroxy-3-methyl-1H-pyrazol-1-yl)nicotinate] | > 7.00 | > 7.00 | 6.00 to 7.00 |
| N#Cc1cc(F)c(-c2cnn(-c3ccc(C(=O)O)cn3)c2O)cc1F [Compound 12, 6-(4-(4-Cyano-2,5-difluorophenyl)-5-hydroxy-1H-pyrazol-1-yl)nicotinic acid] | > 7.00 | > 7.00 | 6.00 to 7.00 |
| N#Cc1ccc(-c2cnn(-c3ccc(C(=O)O)cn3)c2O)cc1F [Compound 13, 6-(4-(4-cyano-3-fluorophenyl)-5-hydroxy-1H-pyrazol-1-yl)nicotinic acid] | > 7.00 | > 7.00 | > 7.00 |
| N#Cc1ccc(-c2cnn(-c3ncc(C(=O)O)cc3F)c2O)cc1 [Compound 14, 6-(4-(4-cyanophenyl)-5-hydroxy-1H-pyrazol-1-yl)-5-fluoronicotinic acid] | 5.00 to 6.00 | 5.00 to 6.00 |  |
| Cc1nn(-c2ccc(C(=O)O)cn2)c(O)c1-c1ccc(Cl)cc1 [Compound 15] | > 7.00 | > 7.00 |  |
| Cc1cc(-c2cnn(-c3ccc(C(=O)O)cn3)c2O)ccc1O [Compound 16, 6-(5-hydroxy-4-(4-hydroxy-3-methylphenyl)-1H-pyrazol-1-yl)nicotinic acid] | 6.00 to 7.00 | 6.00 to 7.00 | 5.00 to 6.00 |
| Cc1nc(-n2nc(C)c(-c3ccc(C#N)cc3)c2O)ccc1C(=O)O [Compound 19, 6-(4-(4-cyanophenyl)-5-hydroxy-3-methyl-1H-pyrazol-1-yl)-2-methylnicotinic acid] | 5.00 to 6.00 | 5.00 to 6.00 |  |

| Structure (SMILES) | pIC50 (full-length human PHD2) | pIC50 (full-length human PHD1) | pIC50 (full-length human PHD3) |
| --- | --- | --- | --- |
| Cc1nn(-c2ccc(C(=O)O)cn2)c(O)c1-c1ccc(Cl)cn1 [Compound 20, 6-(4-(5-chloropyridin-2-yl)-5-hydroxy-3-methyl-1H-pyrazol-1-yl)nicotinic acid] | 6.00 to 7.00 | > 7.00 |  |
| O=C(O)c1ccc(-n2ncc(-c3ccc(Cl)c(O)c3)c2O)nc1 [Compound 22, 6-(4-(4-chloro-3-hydroxyphenyl)-5-hydroxy-1H-pyrazol-1-yl)nicotinic acid] | > 7.00 | > 7.00 |  |
| Cc1nn(-c2ccc(C(=O)O)cn2)c(O)c1-c1ccc(C#N)c(F)c1 [Compound 23, 6-(4-(4-cyano-3-fluorophenyl)-5-hydroxy-3-methyl-1H-pyrazol-1-yl)nicotinic acid] | > 7.00 | > 7.00 |  |
| Cc1nn(-c2ccc(C(=O)O)cn2)c(O)c1-c1ccc(C#N)cc1F [Compound 25, 6-(4-(4-cyano-2-fluorophenyl)-5-hydroxy-3-methyl-1H-pyrazol-1-yl)nicotinic acid] | > 7.00 | > 7.00 |  |
| Cc1nn(-c2cc(N)c(C(=O)O)cn2)c(O)c1-c1ccc(C#N)cc1 [Compound 27, 4-amino-6-(4-(4-cyanophenyl)-5-hydroxy-3-methyl-1H-pyrazol-1-yl)nicotinic acid] | > 7.00 | > 7.00 |  |
| Cc1cc(-c2c(C)nn(-c3ccc(C(=O)O)cn3)c2O)ccc1C#N [Compound 29, 6-(4-(4-cyano-3-methylphenyl)-5-hydroxy-3-methyl-1H-pyrazol-1-yl)nicotinic acid] | > 7.00 | > 7.00 |  |
| N#Cc1ccc(-c2cnn(-c3ccc(C(=O)O)cn3)c2O)c(Cl)c1 [Compound 30, 6-(4-(2-chloro-4-cyanophenyl)-5-hydroxy-1H-pyrazol-1-yl)nicotinic acid] | > 7.00 | > 7.00 |  |
| Cc1cc(C#N)cc(C)c1-c1cnn(-c2ccc(C(=O)O)cn2)c1O [Compound 31, 6-(4-(4-cyano-2,6-dimethylphenyl)-5-hydroxy-1H-pyrazol-1-yl)nicotinic acid] | 6.00 to 7.00 | > 7.00 |  |
| COc1ccc(-c2c(C)nn(-c3ccc(C(=O)O)cn3)c2O)cc1C [Compound 32, 6-(5-hydroxy-4-(4-methoxy-3-methylphenyl)-3-methyl-1H-pyrazol-1-yl)nicotinic acid] | 6.00 to 7.00 | 6.00 to 7.00 |  |
| CCc1cc(C#N)ccc1-c1cnn(-c2ccc(C(=O)O)cn2)c1O [Compound 33, 6-(4-(4-cyano-2-ethylphenyl)-5-hydroxy-1H-pyrazol-1-yl)nicotinic acid] | > 7.00 | > 7.00 |  |
| Cc1nn(-c2cnc(C(=O)O)cn2)c(O)c1-c1ccc(C#N)cc1 [Compound 34, 5-(4-(4-cyanophenyl)-5-hydroxy-3-methyl-1H-pyrazol-1-yl)pyrazine-2-carboxylic acid] | > 7.00 | > 7.00 |  |
| N#Cc1ccc(-c2cnn(-c3ccc(C(=O)O)cn3)c2O)c(C(F)(F)F)c1 [Compound 40, 6-(4-(4-cyano-2-(trifluoromethyl)phenyl)-5-hydroxy-1H-pyrazol-1-yl)nicotinic acid] | > 7.00 | > 7.00 |  |
| Cc1nn(-c2ccc(C(=O)O)cn2)c(O)c1-c1cc[n+]([O-])cc1 [Compound 41, 4-(1-(5-carboxypyridin-2-yl)-5-hydroxy-3-methyl-1H-pyrazol-4-yl)pyridine 1-oxide] | ≤ 5.00 | ≤ 5.00 |  |
| Cc1nn(-c2ccc(C(=O)O)cn2)c(O)c1-c1ccc(Cl)c(C#N)c1 [Compound 42, 6-(4-(4-chloro-3-cyanophenyl)-5-hydroxy-3-methyl-1H-pyrazol-1-yl)nicotinic acid] | > 7.00 | > 7.00 |  |
| COc1ccc(-c2cnn(-c3ccc(C(=O)O)cn3)c2O)cn1 [Compound 43, 6-(5-Hydroxy-4-(6-methoxypyridin-3-yl)-1H-pyrazol-1-yl)nicotinic acid] | > 7.00 | > 7.00 |  |
| Cc1nn(-c2ccc(C(=O)O)cn2)c(O)c1-c1ccc(C#N)c(Cl)c1 [Compound 44, 6-(4-(3-chloro-4-cyanophenyl)-5-hydroxy-3-methyl-1H-pyrazol-1-yl)nicotinic acid] | > 7.00 | > 7.00 |  |
